In US20170121295A1, “POLYCYCLIC LPA1 ANTAGONIST AND USES THEREOF” (AMIRA PHARMACEUTICALS, INC., priority 2010, published 2017):
Read-outs that look alike come from different tables or passages of the source.

How the values were obtained:
[1] = Metabolite identification in liver microsomes; format: in vitro ADME, rat, dog, monkey, human; conditions: human microsomes
Description: To determine the qualitative metabolic profile, 30 μM of Compound 1 was incubated aerobically with rat, dog, monkey, or human liver microsomes (1 mg/mL). The incubations were performed in phosphate buffer at pH 7.4, 37° C., with the reaction initiated by the addition of P-NADPH, GSH and/or UDPGA (1, 5 and 2 mM final concentration, respectively). The reaction was terminated by the addition of 3 times incubation volume of acetonitrile after 60 minutes. The sample was centrifuged and the supernatant was transferred, nitrogen blow dried and reconstituted in 50% acetonitrile in water for LC/MS analysis.
(§1) LC/MS/MS analysis was carried out with a Sciex API-4000Qtrap tandem mass spectrometer (Applied Biosystems/Life Technologies, Carlsbad, Calif.) interfaced to a high-performance liquid chromatography system consisting of an Agilent 1200 series pump (Foster City, Calif.) and a LEAP Technologies PAL autoinjector (Carrboro, N.C.).
(§2) Parent/metabolite analysis was conducted in the positive ion mode (ESI) by multiple reaction monitoring of parent. The mobile phases contained 10 mM ammonium acetate in water with 0.05% formic acid (solvent A) and 10 mM ammonium acetate in 50% acetonitrile/50% methanol with 0.05% formic acid (solvent B). For Compound 1, the flow rate was maintained at 1 mL/min and the total run time was 2.5 min. Analytes were separated on a YMC ODS-AQ column (2.1×150 mm; 3 μm) and eluted with a linear gradient as follows: • 1. mobile phase was held for 0.5 min at 5% B, • 2. B was increased from 5% to 95% over the next 0.2 min, • 3. B was held constant for 1.3 min at 95%, and • 4. B was returned to the initial gradient conditions.
(§3) GSH adducts were investigated in microsomes, hepatocytes and rat bile using several methods including the neutral loss of pyroglutamate (129 Da) as well as a precursor ion scans of Compound 1 (105 Da, 318 Da and 438 Da).
For metabolite quantitation, the flow rate was maintained at 0.25 mL/min and the total run time was 60 min. Analytes were separated using a linear gradient as follows: • 1. mobile phase was held for 5 min at 5% B, • 2. […]

[2] = Metabolite identification in hepatocytes; format: in vitro ADME, rat, dog, monkey, human; conditions: rat, dog or human hepatocytes
Description: Rat, dog, monkey, or human hepatocytes were thawed according to the supplier's instructions. Cells were counted using the Trypan Blue method, and then diluted to 1×10^6 viable cells/ml with KB medium. Compound 1 was tested at 30 μM and incubated for up to 2 hours in rat hepatocytes and 4 hours in dog, monkey or human hepatocytes at 37° C. Reactions were terminated with addition of 3 times incubation volume of acetonitrile, centrifuged, and supernatants were transferred, nitrogen blow dried and reconstituted in 50% acetonitrile in water for LC/MS analysis.
as §1, §2, §3
For metabolite quantitation, the flow rate was maintained at 0.25 mL/min and the total run time was 60 min. Analytes were separated using a linear gradient as follows: • 1. mobile phase was held for 5 min at 5% B, • 2. B was increased from 5% to 95% over the next 45 min. • 3. […]

[3] = Pharmacokinetics in Sprague-Dawley Rats; format: in vivo; conditions: for mean dose adjusted exposure (AUC0-24/D) / Cmax / bioavailability / AUC(0-t): PO 1 mg/kg; for mean dose adjusted exposure (AUC0-24/D) / dose adjusted AUC value (AUC0-24/D) / Cmax / bioavailability: fasted; for Cmax / bioavailability / AUC(0-t): Sprague-Dawley, rat, plasma; for Cmax: read-out: maximal plasma concentration (Cmax); for bioavailability: read-out: apparent bioavailability; for AUC(0-t): fed, read-out: exposure (AUC0-24)
Description: The pharmacokinetics of Compound 1 and Compound 2 was assessed in male and female Sprague-Dawley rats (225-300 g at 10 weeks).
Compound 2 (1 mg/kg) was administered intravenously (IV) to fasted rats (n=3) as a solution in purified water via a bolus injection into the jugular vein (1 mg/mL; 1 mL/kg). Compound 1 (10 mg/kg) was administered orally (PO), to fasted (for at least 12 hours) or non-fasted rats (n=2 or 3) as a solution in 0.5% methylcellulose unless otherwise noted via an oral gavage to the stomach (3.33 mg/mL; 3 mL/kg). Non-fasted animals were fasted for at least 12 hours and then were given food ad libitum for 1 hour prior to dosing. Fasted animals were dosed 1, 10, 30, 100 or 300 mg/kg Compound 1 as a solution in 0.5% methylcellulose via an oral gavage to the stomach (0.69 mg/mL, 10 mg/mL, 33.3 mg/mL or 100 mg/mL) (n=2 or 3 per dose group). In a gastrointestinal study, rats were anesthetized and Compound 1 was administered directly to the duodenum, jcjunum or ilcum at 1 mg/kg in 0.5% methylcellulose.
Capsules were also administered with Compound 2. Capsules were size 9 gelatin (Torpac, San Diego, Calif.).
Blood samples (approximately 300 μL total blood) were taken from each rat via the jugular vein cannula at pre-dose, and an initial time of 5 or 15 min and then various time points up to 24 hours post-dose (10-11 samples per animal). Samples were collected on wet ice in tubes containing potassium EDTA. After each blood draw, the cannula was flushed with an equivalent volume of heparinized saline (0.1 mL at 40 units/mL). Plasma samples, prepared by centrifugation of whole blood, were stored frozen (−80° C.) prior to analysis.

Human LPA1 = target: T1, Human LPA1 (Homo sapiens, UniProt Q92633); assay: LPA1 Calcium Flux Assay; format: cell-based; conditions: human LPA1 expressing CHO cells, 10 nM LPA; read-out: Ca Flux IC50 LPA1
T1 construct: the full-length cDNA for human LPA1 was obtained by PCR of the reverse transcription reaction; expressed in transfected cells
Description: A 1.1 kb cDNA encoding the human LPA1 receptor was cloned from human lung. Human lung RNA (Clontech Laboratories, Inc. USA) was reverse transcribed using the RETROscript kit (Ambion, Inc.) and the full-length cDNA for human LPA1 was obtained by PCR of the reverse transcription reaction. The nucleotide sequence of the cloned human LPA1 was determined by sequencing and confirmed to be identical to the published human LPA1 sequence (An et al. Biochem. Biophys. Res. Commun. 231:619 (1997). The cDNA was cloned into the pCDNA5/FRT expression plasmid and transfected in CHO cells using lipofectamine 2000 (Invitrogen Corp., USA). Clones stably expressing human LPA1 were selected using hygromycin and identified as cells that show Ca-influx in response to LPA.
Human LPA1 or LPA3 expressing CHO cells are seeded at 20,000-45,000 cells per well in a 96-well poly-D-lysine coated plate one or two days before the assay. Prior to the assay, the cells are washed once with PBS and then cultured in serum-free media overnight. On the day of the assay, a calcium indicator dye (Calcium 4, Molecular Devices) in assay buffer (HBSS with Ca^2+ and Mg^2+ and containing 20 mM Hepes and 0.3% fatty-acid free human serum albumin) is added to each well and incubation continued for 1 hour at 37° C. 10 μl of test compound in 2.5% DMSO are added to the cells and incubation continued at room temperature for 30 minutes. Cells are the stimulated by the addition of 10 nM LPA and intracellular Ca^2+ measured using the Flexstation 3 (Molecular Devices). IC50s are determined using Graphpad prism analysis of drug titration curves.

T1 sequence (Q92633 whole entry): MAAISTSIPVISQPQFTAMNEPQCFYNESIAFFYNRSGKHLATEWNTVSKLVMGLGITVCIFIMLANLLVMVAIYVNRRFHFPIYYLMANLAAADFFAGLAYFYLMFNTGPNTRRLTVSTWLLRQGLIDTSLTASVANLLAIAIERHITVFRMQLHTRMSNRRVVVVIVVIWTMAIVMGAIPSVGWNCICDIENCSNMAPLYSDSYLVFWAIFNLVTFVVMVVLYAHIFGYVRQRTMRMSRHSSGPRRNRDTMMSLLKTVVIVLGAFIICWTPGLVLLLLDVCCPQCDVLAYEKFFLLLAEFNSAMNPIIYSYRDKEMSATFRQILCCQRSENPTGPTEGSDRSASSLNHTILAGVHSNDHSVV

For `Cc1noc(-c2ccc(-c3ccc(C4(C(=O)O)CC4)cc3)cc2)c1NC(=O)O[C@H](C)c1ccccc1` [Compound 1, 1-{4′-[3-methyl-4-((R)-1-phenyl-ethoxycarbonylamino)-isoxazol-5-yl]-biphenyl-4-yl}-cyclopropanecarboxylic acid], the “GSH adduct in microsomes” value [1] was “No GSH adduct was observed”, the “GSH adduct in hepatocytes” value [2] was “No GSH adduct was observed” and the mean dose adjusted exposure (AUC0-24/D) ([3]; females) was 1.9 µg·h/mL. For the same compound, the mean dose adjusted exposure (AUC0-24/D) ([3]; males) was 2.1 µg·h/mL, the “exposure in fed vs. fasted animals” value ([3]; PO 10 mg/kg) was “slightly lower exposure in fed animals vs. fasted” and the “dose adjusted AUC value (AUC0-24/D)” value ([3]; PO 10 mg/kg, female rats) was 2.7 µg·h/mL. For the same compound, the “dose adjusted AUC value (AUC0-24/D)” value ([3]; PO 10 mg/kg, male rats) was 2.4 µg·h/mL, the “dose proportionality of exposure” value ([3]; PO 30, 100 and 300 mg/kg) was “greater than dose proportional” and the “dose proportionality of exposure” value ([3]; PO doses of 1 and 10 mg/kg, suspension) was “dose proportional”. For the same compound, the Cmax ([3]; female rats) was 300 ng/mL, the bioavailability ([3]; female) was 58% and the Cmax ([3]; male rats) was 400 ng/mL. For the same compound, the bioavailability ([3]; male) was 63%, the AUC(0-t) ([3]; female rats) was 1400 ng·h/mL and the AUC(0-t) ([3]; male rats) was 1600 ng·h/mL. For the same compound, the regional absorption ([3]; administered directly to duodenum, jejunum or ileum at 1 mg/kg) was “good oral bioavailability along the entire gastrointestinal tract”, the dose normalized exposure ([3]; oral, 10 mg/kg) was 5.1 µg·h/mL and the IC50 (Human LPA1) was under 200 nM.
